Some results are limits rather than exact numbers.

This assay deals with T1, GST-ALK5 (Homo sapiens, UniProt P36897).
T1 sequence (P36897 34-503): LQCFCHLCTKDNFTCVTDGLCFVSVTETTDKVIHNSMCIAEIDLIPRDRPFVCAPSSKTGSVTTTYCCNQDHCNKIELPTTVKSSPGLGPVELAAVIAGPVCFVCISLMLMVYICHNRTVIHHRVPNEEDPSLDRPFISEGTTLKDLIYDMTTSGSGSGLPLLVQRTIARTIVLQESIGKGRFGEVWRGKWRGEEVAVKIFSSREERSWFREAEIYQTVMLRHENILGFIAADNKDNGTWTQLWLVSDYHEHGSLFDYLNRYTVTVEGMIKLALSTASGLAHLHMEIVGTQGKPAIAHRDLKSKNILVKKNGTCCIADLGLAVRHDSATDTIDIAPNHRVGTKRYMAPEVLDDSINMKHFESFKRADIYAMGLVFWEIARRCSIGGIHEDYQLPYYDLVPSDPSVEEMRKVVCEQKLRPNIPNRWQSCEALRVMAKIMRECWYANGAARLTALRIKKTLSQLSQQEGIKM
Description: In-vitro (enzyme) kinase assay, 384-well flashplate (example 14). Type of assay: biochemical. As to conditions: GST-ALK5, GST-SMAD2 substrate, 33P-ATP flashplate, 30° C. 45 min; IC50 classes; read-out: TβR activity (example 14). The procedure:
In-Vitro (Enzyme) Assay for Determination of the Efficacy of Inhibitors of the Inhibition of TGF-Beta-Mediated Effects
The kinase assay was carried out as 384-well flashplate assay. 31.2 nM of GST-ALK5, 439 nM of GST-SMAD2 and 3 mM of ATP (with 0.3 μCi of ^33P-ATP/well) were incubated in a total volume of 35 μl (20 mM of HEPES, 10 mM of MgCl2, 5 mM of MnCl2, 1 mM of DTT, 0.1% of BSA, pH 7.4) without or with test substance (5-10 concentrations) at 30° C. for 45 min. The reaction was stopped using 25 μl of 200 mM EDTA solution, filtered with suction at room temperature after 30 min, and the wells were washed with 3 times 100 μl of 0.9% NaCl solution. Radioactivity was measured in the TopCount. The IC50 values were calculated using RS1. Above and below, all temperatures were indicated in ° C.
Turning to `Fc1ccc(Cl)cc1-c1cc(Nc2ccncc2OCCCN2CCOCC2)c2cccnc2n1` [compound 34], the IC50 is below 100 nM. The value for `CN1CCC(COc2cnccc2Nc2cc(-c3cc(Cl)ccc3F)nc3ncccc23)CC1` [compound 47] was below 100 nM. The value for `Cn1ccc(-c2cc(Nc3ccncc3)c3cccnc3n2)n1` [compound 35] was 100 to 1000 nM; that for `COC(=O)c1cc(Nc2cc(-c3cc(Cl)ccc3F)nc3ncccc23)ccn1` [compound 48] was below 100 nM. Regarding `Fc1ccc(Cl)cc1-c1cc(Nc2ccnc(Cl)c2)c2cccnc2n1` [compound 62], the IC50 is below 100 nM. For the molecule `O=C(O)c1cnccc1Nc1cc(-c2cc(Cl)ccc2F)nc2ncccc12` [compound 63], the IC50 is below 100 nM. Then `CCN(CCOc1cnccc1Nc1cc(-c2cc(Cl)ccc2F)nc2ncccc12)C(=O)OC(C)(C)C` [compound 45], with 100 to 1000 nM. The value for `Cc1cccc(-c2cc(-n3ccc4cnccc43)c3cccnc3n2)n1` [compound 57] was below 100 nM.

With `CN(C)CCCOc1cnccc1Nc1cc(-c2cc(Cl)ccc2F)nc2ncccc12` [compound 33], the IC50 is below 100 nM. Then `Fc1ccc(F)c(-c2cc(Nc3ccncc3)c3cccnc3n2)c1` [compound 13], with below 100 nM; and `Cn1nccc1-c1cc(Nc2ccncc2)c2cccnc2n1` [compound 36], with 1000 to 10000 nM. With `CNC(=O)c1cc(Nc2cc(-c3cc(Cl)ccc3F)nc3ncccc23)ccn1` [compound 53], the IC50 is below 100 nM. Then `Cc1cccc(-c2cc(Nc3ccncc3)c3cccnc3n2)n1` [compound 03], with below 100 nM; and `Fc1ccc(C(F)(F)F)cc1-c1cc(Nc2ncncn2)c2cccnc2n1` [compound 44], with below 100 nM; and `CNC(=O)c1cnccc1Nc1cc(-c2cc(Cl)ccc2F)nc2ncccc12` [compound 42], with below 100 nM. For `Fc1ccc(Cl)cc1-c1cc(Nc2ncncn2)c2cccnc2n1` [compound 18], the IC50 was below 100 nM. Then `CCNCCOc1cnccc1Nc1cc(-c2cc(Cl)ccc2F)nc2ncccc12` [compound 46], with 100 to 1000 nM. The value for `Fc1ccc(-c2cc(Nc3ccncc3)c3cccnc3n2)cc1` [compound 06] was below 100 nM; that for `CC(C)(C)OC(=O)Nc1nccc(Nc2cc(-c3cc(Cl)ccc3F)nc3ncccc23)n1` [compound 51] was below 100 nM. Consider `Fc1ccc(C(F)(F)F)cc1-c1cc(Nc2ccncn2)c2cccnc2n1` [compound 21], for which the IC50 was below 100 nM.

Take `Cn1cc(-c2cc(Nc3ccncc3)c3cccnc3n2)cn1` [compound 19]: the IC50 lay within 1000 to 10000 nM. Then `O=c1[nH]c2cnccc2n1-c1cc(-c2cc(Cl)ccc2F)nc2ncccc12` [compound 29], with below 100 nM; and `Fc1ccc(Cl)cc1-c1cc(Sc2ccncc2)c2cccnc2n1` [compound 58], with below 100 nM. Then `CN1CCN(c2ccc(Nc3cc(Nc4cc(-c5cc(Cl)ccc5F)nc5ncccc45)ccn3)cc2)CC1` [compound 27], with 100 to 1000 nM; and `Cc1cccc(-c2cc(Nc3cc(N)ncn3)c3cccnc3n2)n1` [compound 55], with below 100 nM. As for `CN(C)CCOc1cnccc1Nc1cc(-c2cc(Cl)ccc2F)nc2ncccc12` [compound 23], the IC50 was below 100 nM. The value for `N#Cc1ccccc1-c1cc(Nc2ccncc2)c2cccnc2n1` [compound 61] was 100 to 1000 nM. `Nc1cnccc1Nc1cc(-c2cc(Cl)ccc2F)nc2ncccc12` [compound 22]: the IC50 is below 100 nM. The value for `OCc1cnccc1Nc1cc(-c2cc(C(F)(F)F)ccc2F)nc2ncccc12` [compound 37] was below 100 nM; that for `Fc1ccc(Cl)cc1-c1cc(Nc2ccnc(Nc3cc(-c4cc(Cl)ccc4F)nc4ncccc34)n2)c2cccnc2n1` [compound 39] was 1000 to 10000 nM. The value for `Fc1ccccc1-c1cc(Nc2ccncn2)c2cccnc2n1` [compound 17] was below 100 nM. The value for `Nc1cc(Nc2cc(-c3cc(C(F)(F)F)ccc3F)nc3ncccc23)ncn1` [compound 32] was below 100 nM; that for `OCCOc1cnccc1Nc1cc(-c2cc(Cl)ccc2F)nc2ncccc12` [compound 09] was below 100 nM. Consider `COCCOc1cnccc1Nc1cc(-c2cc(C(F)(F)F)ccc2F)nc2ncccc12` [compound 26], for which the IC50 is below 100 nM. The value for `Fc1ccc(Cl)cc1-c1cc(-n2ccc3cncnc32)c2cccnc2n1` [compound 54] was below 100 nM.

In the case of `CC(=O)Nc1cc(Nc2cc(-c3cc(Cl)ccc3F)nc3ncccc23)ccn1` [compound 67], the IC50 is below 100 nM. The value for `Clc1cccc(-c2cc(Nc3ccncc3)c3cccnc3n2)c1` [compound 11] was below 100 nM. Then `COCCOc1cnccc1Nc1cc(-c2cc(Cl)ccc2F)nc2ncccc12` [compound 15], with below 100 nM. Consider `Fc1ccc(C(F)(F)F)cc1-c1cc(-n2ccc3cnccc32)c2cccnc2n1` [compound 30], for which the IC50 was below 100 nM. The value for `Fc1ccc(Cl)cc1-c1cc(Nc2ccncc2)c2cccnc2n1` [compound 01] was below 100 nM; that for `CCNC(=O)c1cnccc1Nc1cc(-c2cccc(C)n2)nc2ncccc12` [compound 60] was below 100 nM; that for `CC(C)C(=O)Nc1cc(Nc2cc(-c3cc(Cl)ccc3F)nc3ncccc23)ccn1` [compound 70] was below 100 nM. The value for `Fc1ccc(Cl)cc1-c1cc(Oc2ccncc2)c2cccnc2n1` [compound 56] was above 10000 nM; that for `Fc1ccc(OC(F)(F)F)cc1-c1cc(Nc2ccncc2)c2cccnc2n1` [compound 38] was below 100 nM; that for `Fc1ccc(Cl)cc1-c1cc(-n2ccc3cnccc32)c2cccnc2n1` [compound 14] was below 100 nM. The value for `Nc1cc(Nc2cc(-c3cc(Cl)ccc3F)nc3ncccc23)ncn1` [compound 02] was below 100 nM. Regarding `Cc1nn(-c2cc(-c3cc(Cl)ccc3F)nc3ncccc23)c2ccncc12` [compound 71], the IC50 was below 100 nM. Then `Fc1cc(F)c(-c2cc(Nc3ccncc3)c3cccnc3n2)cc1F` [compound 43], with below 100 nM; and `Cc1cccc(-c2cc(-n3ccc4cncnc43)c3cccnc3n2)n1` [compound 59], with 100 to 1000 nM. Then `Nc1nccc(Nc2cc(-c3cc(Cl)ccc3F)nc3ncccc23)n1` [compound 52], with below 100 nM. In the case of `FC(F)(F)c1cccc(-c2cc(Nc3ccncc3)c3cccnc3n2)c1` [compound 12], the IC50 is below 100 nM. The value for `Fc1cc(F)c(-c2cc(Nc3ccncn3)c3cccnc3n2)cc1F` [compound 50] was below 100 nM. The value for `N#Cc1cncnc1Nc1cc(-c2cc(Cl)ccc2F)nc2ncccc12` [compound 41] was below 100 nM; that for `Fc1ccc(Cl)cc1-c1cc(Nc2ccncn2)c2cccnc2n1` [compound 05] was below 100 nM. Then `OCc1cnccc1Nc1cc(-c2cc(Cl)ccc2F)nc2ncccc12` [compound 20], with below 100 nM. As to `Cc1ccn(-c2cc(Nc3ccncc3)c3cccnc3n2)n1` [compound 28], the IC50 was below 100 nM. As to `O=C(O)c1cc(Nc2cc(-c3cc(Cl)ccc3F)nc3ncccc23)ccn1` [compound 68], the IC50 lay within 1000 to 10000 nM. The value for `Cc1cccc(-c2cc(Nc3ccncn3)c3cccnc3n2)n1` [compound 49] was below 100 nM; that for `Fc1ccccc1-c1cc(Nc2ccncc2)c2cccnc2n1` [compound 10] was below 100 nM; that for `Fc1ccc(Cl)cc1-c1cc(Nc2ccncc2OCCN2CCOCC2)c2cccnc2n1` [compound 04] was 100 to 1000 nM. The value for `c1ccc(-c2cc(Nc3ccncc3)c3cccnc3n2)nc1` [compound 25] was below 100 nM; that for `Fc1ccc(C(F)(F)F)cc1-c1cc(Nc2ccncc2)c2cccnc2n1` [compound 16] was below 100 nM. The value for `N#Cc1cnccc1Nc1cc(-c2cc(Cl)ccc2F)nc2ncccc12` [compound 65] was below 100 nM. With `CN1CCN(c2cc(Nc3cc(-c4cc(Cl)ccc4F)nc4ncccc34)ccn2)CC1` [compound 08], the IC50 was in the range of 1000 to 10000 nM. The value for `COC(=O)c1cnccc1Nc1cc(-c2cc(Cl)ccc2F)nc2ncccc12` [compound 40] was below 100 nM; that for `c1cnc2nc(-c3cn[nH]c3)cc(Nc3ccncc3)c2c1` [compound 31] was 100 to 1000 nM. The value for `CCOc1cc(Nc2cc(-c3cc(Cl)ccc3F)nc3ncccc23)ccn1` [compound 07] was 100 to 1000 nM. Then `c1cnc2nc(-c3cnccn3)cc(Nc3ccncc3)c2c1` [compound 24], with 1000 to 10000 nM.

(Values after patent US8815893B2, “Hetarylaminonaphthyridines” (Merck Patent GmbH, priority 2010, dated 2014).)
